Reference: ChEMBL document CHEMBL4043290, “Structure-based Design of Pyridone-Aminal eFT508 Targeting Dysregulated Translation by Selective Mitogen-activated Protein Kinase Interacting Kinases 1 and 2 (MNK1/2) Inhibition” (J Med Chem, 2018)
One block for each compound: values may come before it.

What was measured:
[1] = molecular target: MAP kinase-interacting serine/threonine-protein kinase 2 (Homo sapiens, UniProt Q9HBH9)
[2] = molecular target: MAP kinase-interacting serine/threonine-protein kinase 1/2 (Homo sapiens, UniProt Q9HBH9+Q9BUB5)
[3] = molecular target: MAP kinase-interacting serine/threonine-protein kinase 1 (Homo sapiens, UniProt Q9BUB5)
MAP kinase-interacting serine/threonine-protein kinase 1, sequence (Q9BUB5 whole entry): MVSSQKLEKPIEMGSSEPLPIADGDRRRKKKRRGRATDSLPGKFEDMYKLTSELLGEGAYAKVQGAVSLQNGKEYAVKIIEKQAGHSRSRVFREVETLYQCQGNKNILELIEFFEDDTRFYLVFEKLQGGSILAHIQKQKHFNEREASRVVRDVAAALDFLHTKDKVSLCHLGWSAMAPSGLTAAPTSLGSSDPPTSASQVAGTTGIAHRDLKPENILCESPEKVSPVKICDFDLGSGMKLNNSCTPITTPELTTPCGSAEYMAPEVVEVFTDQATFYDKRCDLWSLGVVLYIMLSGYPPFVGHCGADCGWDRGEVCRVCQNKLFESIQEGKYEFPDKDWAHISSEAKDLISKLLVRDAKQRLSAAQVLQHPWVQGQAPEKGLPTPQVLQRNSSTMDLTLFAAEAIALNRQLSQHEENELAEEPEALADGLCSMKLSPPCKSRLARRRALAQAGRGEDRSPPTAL

[4] = molecular target: Vascular endothelial growth factor receptor 2 (Homo sapiens) (UniProt P35968); assay: Inhibition of KDR (unknown origin) at 1 uM relative to control
Vascular endothelial growth factor receptor 2 (Homo sapiens), sequence (P35968 whole entry): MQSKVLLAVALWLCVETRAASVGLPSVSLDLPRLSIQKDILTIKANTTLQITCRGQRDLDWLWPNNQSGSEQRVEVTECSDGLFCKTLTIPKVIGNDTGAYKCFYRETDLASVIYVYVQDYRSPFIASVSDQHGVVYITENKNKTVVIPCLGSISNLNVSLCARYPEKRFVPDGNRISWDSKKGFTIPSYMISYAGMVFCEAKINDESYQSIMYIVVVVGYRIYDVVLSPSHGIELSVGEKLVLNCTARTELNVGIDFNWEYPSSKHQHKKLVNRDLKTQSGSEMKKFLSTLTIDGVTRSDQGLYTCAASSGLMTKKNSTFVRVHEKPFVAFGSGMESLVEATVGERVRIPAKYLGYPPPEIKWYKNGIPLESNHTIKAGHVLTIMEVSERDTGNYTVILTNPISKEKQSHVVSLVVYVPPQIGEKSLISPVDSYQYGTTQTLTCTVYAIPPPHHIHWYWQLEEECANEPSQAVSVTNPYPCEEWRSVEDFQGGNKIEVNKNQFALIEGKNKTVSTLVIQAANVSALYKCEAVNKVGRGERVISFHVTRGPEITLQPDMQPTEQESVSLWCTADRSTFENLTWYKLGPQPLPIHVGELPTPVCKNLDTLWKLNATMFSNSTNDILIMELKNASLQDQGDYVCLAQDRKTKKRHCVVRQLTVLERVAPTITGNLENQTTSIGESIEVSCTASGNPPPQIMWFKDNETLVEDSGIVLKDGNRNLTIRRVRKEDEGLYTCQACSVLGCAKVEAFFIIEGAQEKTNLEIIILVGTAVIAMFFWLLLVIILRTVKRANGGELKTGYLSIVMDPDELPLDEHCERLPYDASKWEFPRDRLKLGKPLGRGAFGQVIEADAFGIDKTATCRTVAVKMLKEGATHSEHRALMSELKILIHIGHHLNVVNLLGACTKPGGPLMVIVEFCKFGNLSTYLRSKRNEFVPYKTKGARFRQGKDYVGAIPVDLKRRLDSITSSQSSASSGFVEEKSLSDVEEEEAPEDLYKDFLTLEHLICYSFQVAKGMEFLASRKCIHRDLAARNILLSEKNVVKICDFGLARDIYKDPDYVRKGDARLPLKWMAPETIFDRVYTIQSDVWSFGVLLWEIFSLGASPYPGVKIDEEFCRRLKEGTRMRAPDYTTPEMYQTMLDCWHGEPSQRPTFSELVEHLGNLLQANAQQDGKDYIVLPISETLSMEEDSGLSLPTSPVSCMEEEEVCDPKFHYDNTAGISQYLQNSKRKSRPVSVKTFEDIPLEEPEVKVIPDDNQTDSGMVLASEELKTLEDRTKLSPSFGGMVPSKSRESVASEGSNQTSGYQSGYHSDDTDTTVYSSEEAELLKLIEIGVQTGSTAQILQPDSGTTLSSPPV

[5] = Metabolic stability in mouse liver microsomes assessed as parent compound remaining at 1 uM after 30 mins by LC-ESI-TOF/MS method; type: ADME, microsome; settings: read-out: Stability
[6] = Metabolic stability in rat liver microsomes assessed as parent compound remaining at 1 uM after 30 mins by LC-ESI-TOF/MS method; type: ADME, microsome; settings: read-out: Stability
[7] = Metabolic stability in human liver microsomes assessed as parent compound remaining at 1 uM after 30 mins by LC-ESI-TOF/MS method; type: ADME, microsome; settings: read-out: Stability
[8] = Oral bioavailability in Balb/c mouse at 10 mg/kg by LC-ESI-TOF/MS or LC-ESI-MS/MS method; type: ADME, organism-based; settings: in vivo
[9] = Oral bioavailability in Sprague-Dawley rat at 10 mg/kg by LC-ESI-TOF/MS or LC-ESI-MS/MS method; type: ADME, organism-based; settings: in vivo
[10] = Oral bioavailability in Beagle dog at 3 mg/kg by LC-ESI-TOF/MS or LC-ESI-MS/MS method; type: ADME, organism-based, Canis lupus familiaris; settings: in vivo
[11] = Oral bioavailability in cynomolgus monkey at 3 mg/kg by LC-ESI-TOF/MS or LC-ESI-MS/MS method; type: ADME, organism-based, Macaca fascicularis; settings: in vivo
[12] = molecular target: T1, Serine/threonine-protein kinase 17A (Homo sapiens) (UniProt Q9UEE5); assay: Inhibition of DRAK1 (unknown origin) at 1 uM relative to control
T1 sequence (whole entry): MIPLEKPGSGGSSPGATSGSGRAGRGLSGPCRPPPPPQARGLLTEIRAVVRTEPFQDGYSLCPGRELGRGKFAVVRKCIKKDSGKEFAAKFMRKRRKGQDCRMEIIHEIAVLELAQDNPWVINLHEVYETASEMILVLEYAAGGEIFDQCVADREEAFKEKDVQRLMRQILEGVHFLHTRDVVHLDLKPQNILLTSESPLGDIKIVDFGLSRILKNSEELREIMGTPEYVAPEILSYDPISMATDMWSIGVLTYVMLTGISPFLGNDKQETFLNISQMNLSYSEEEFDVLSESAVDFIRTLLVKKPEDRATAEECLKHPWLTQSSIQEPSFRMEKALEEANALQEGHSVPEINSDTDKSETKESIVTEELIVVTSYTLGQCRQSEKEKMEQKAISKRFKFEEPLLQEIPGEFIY

[13] = molecular target: T2, Serine/threonine-protein kinase BRSK1 (Homo sapiens) (UniProt Q8TDC3); assay: Inhibition of BRSK1 (unknown origin) at 1 uM relative to control
T2 sequence (whole entry): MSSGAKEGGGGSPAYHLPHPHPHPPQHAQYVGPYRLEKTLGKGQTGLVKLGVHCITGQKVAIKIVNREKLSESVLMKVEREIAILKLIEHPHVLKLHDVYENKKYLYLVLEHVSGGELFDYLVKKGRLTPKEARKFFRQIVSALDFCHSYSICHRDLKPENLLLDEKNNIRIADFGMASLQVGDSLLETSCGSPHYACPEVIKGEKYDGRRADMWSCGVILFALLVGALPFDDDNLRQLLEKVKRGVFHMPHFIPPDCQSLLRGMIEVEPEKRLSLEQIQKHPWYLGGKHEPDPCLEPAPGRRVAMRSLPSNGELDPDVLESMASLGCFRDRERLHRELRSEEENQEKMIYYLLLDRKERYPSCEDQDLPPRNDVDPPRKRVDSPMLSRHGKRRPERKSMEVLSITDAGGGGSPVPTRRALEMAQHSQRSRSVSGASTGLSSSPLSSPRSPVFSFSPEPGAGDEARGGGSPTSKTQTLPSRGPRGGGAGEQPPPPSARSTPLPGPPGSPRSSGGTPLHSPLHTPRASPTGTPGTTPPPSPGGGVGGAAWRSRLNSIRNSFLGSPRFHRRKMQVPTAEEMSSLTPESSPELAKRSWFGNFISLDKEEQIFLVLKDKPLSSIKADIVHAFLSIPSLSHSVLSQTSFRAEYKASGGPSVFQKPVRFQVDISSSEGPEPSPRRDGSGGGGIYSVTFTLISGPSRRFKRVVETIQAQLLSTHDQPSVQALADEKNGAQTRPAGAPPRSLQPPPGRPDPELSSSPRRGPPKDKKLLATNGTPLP

[14] = molecular target: Dual specificity tyrosine-phosphorylation-regulated kinase 2 (Homo sapiens) (UniProt Q92630); assay: Inhibition of DYRK2 (unknown origin) at 1 uM relative to control
physchem = settings: octanol/water
in vitro = settings: human, Caco-2
[15] = molecular target: Platelet-derived growth factor receptor alpha (Homo sapiens) (UniProt P16234); assay: Inhibition of PDGFRA (unknown origin) at 1 uM relative to control
Platelet-derived growth factor receptor alpha (Homo sapiens), sequence (P16234 whole entry): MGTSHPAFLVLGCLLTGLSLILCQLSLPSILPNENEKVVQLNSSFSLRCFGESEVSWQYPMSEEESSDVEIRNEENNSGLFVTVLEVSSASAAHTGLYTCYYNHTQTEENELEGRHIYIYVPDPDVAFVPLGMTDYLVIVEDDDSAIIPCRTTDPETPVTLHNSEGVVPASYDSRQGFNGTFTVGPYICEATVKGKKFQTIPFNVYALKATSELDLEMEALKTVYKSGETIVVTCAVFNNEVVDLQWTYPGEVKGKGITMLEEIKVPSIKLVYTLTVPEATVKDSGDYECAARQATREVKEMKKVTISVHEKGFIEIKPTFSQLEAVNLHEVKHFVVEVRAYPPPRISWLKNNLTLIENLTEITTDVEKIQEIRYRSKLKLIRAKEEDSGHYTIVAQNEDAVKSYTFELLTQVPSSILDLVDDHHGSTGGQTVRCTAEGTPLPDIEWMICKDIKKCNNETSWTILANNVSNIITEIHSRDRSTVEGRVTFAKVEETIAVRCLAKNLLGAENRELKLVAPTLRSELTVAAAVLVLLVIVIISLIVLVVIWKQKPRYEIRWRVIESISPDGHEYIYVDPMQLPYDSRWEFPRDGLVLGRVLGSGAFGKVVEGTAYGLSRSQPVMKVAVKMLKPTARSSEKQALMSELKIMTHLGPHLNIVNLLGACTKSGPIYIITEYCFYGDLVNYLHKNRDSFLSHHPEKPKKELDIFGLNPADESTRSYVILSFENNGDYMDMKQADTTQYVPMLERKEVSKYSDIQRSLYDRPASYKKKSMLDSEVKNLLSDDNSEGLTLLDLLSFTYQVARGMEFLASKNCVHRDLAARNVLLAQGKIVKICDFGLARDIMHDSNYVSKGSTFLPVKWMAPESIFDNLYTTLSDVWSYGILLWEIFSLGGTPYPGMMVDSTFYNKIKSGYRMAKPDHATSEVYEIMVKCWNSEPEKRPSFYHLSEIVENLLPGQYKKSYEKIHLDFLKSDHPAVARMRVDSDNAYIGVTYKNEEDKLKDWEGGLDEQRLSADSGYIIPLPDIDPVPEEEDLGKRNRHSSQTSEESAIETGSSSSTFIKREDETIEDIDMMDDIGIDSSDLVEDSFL

[16] = molecular target: Cyclin-dependent kinase 2 (Homo sapiens) (UniProt P24941); assay: Inhibition of CDK2 (unknown origin) at 1 uM relative to control
PC-3 = assay: Antiproliferative activity against human PC3 cells after 72 hrs by CellTiter-Glo assay; type: functional, cell-based; settings: PC-3, 72 h
HCT-116 = assay: Antiproliferative activity against human HCT116 cells after 72 hrs by CellTiter-Glo assay; type: functional, cell-based; settings: HCT-116, 72 h
SW-620 = assay: Antiproliferative activity against human SW620 cells after 72 hrs by CellTiter-Glo assay; type: functional, cell-based; settings: SW-620, 72 h
[17] = molecular target: Receptor-type tyrosine-protein kinase FLT3 (Homo sapiens) (UniProt P36888); assay: Inhibition of FLT3 (unknown origin) at 1 uM relative to control
Receptor-type tyrosine-protein kinase FLT3 (Homo sapiens), sequence (P36888 whole entry): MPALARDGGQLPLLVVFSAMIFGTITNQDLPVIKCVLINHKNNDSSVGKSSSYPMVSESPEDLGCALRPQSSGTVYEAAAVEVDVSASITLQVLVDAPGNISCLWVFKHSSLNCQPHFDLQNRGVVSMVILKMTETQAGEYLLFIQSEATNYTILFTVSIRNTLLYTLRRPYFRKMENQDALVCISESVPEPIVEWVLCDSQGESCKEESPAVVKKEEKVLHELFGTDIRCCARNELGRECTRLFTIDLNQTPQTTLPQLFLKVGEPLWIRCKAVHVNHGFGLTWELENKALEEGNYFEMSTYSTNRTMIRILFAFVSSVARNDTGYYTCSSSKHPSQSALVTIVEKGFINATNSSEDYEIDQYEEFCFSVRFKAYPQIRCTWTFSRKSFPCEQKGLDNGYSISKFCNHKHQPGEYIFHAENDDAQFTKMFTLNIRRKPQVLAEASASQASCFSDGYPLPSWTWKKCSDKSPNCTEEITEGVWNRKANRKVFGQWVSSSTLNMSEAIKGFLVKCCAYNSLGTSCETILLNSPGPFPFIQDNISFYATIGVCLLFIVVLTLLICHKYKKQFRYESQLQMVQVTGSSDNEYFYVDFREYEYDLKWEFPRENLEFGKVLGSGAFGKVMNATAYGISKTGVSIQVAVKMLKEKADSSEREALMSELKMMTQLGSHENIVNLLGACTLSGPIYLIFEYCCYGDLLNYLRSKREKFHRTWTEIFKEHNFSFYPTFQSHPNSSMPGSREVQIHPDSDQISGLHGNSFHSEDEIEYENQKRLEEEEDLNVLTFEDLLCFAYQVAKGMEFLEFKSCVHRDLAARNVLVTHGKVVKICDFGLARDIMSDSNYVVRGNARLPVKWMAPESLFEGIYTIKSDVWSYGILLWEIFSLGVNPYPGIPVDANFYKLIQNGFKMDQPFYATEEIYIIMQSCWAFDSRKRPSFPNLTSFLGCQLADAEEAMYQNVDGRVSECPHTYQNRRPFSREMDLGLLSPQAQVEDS

[18] = molecular target: Dual specificity tyrosine-phosphorylation-regulated kinase 1A (Homo sapiens) (UniProt Q13627); assay: Inhibition of DYRK1A (unknown origin) at 1 uM relative to control
[19] = molecular target: Platelet-derived growth factor receptor beta (Homo sapiens) (UniProt P09619); assay: Inhibition of PDGFRB (unknown origin) at 1 uM relative to control
[20] = molecular target: Dual specificity protein kinase CLK1 (Homo sapiens) (UniProt P49759); assay: Inhibition of CLK1 (unknown origin) at 1 uM relative to control
[21] = molecular target: Serine/threonine-protein kinase pim-1 (Homo sapiens) (UniProt P11309); assay: Inhibition of PIM1 (unknown origin) at 1 uM relative to control
[22] = molecular target: Calcium/calmodulin-dependent protein kinase type II subunit alpha (Homo sapiens) (UniProt Q9UQM7); assay: Inhibition of CAMK2A (unknown origin) at 1 uM relative to control
[23] = molecular target: Rho-associated protein kinase 1 (Homo sapiens) (UniProt Q13464); assay: Inhibition of ROCK1 (unknown origin) at 1 uM relative to control
[24] = molecular target: Interleukin-1 receptor-associated kinase 1 (Homo sapiens) (UniProt P51617); assay: Inhibition of IRAK1 (unknown origin) at 1 uM relative to control
[25] = molecular target: 5'-AMP-activated protein kinase catalytic subunit alpha-1 (Homo sapiens) (UniProt Q13131); assay: Inhibition of AMPKA1 (unknown origin) at 1 uM relative to control
[26] = molecular target: 5'-AMP-activated protein kinase subunit beta-1 (Homo sapiens) (UniProt Q9Y478); assay: Inhibition of AMPKB1 (unknown origin) at 1 uM relative to control
5'-AMP-activated protein kinase subunit beta-1 (Homo sapiens), sequence (Q9Y478 whole entry): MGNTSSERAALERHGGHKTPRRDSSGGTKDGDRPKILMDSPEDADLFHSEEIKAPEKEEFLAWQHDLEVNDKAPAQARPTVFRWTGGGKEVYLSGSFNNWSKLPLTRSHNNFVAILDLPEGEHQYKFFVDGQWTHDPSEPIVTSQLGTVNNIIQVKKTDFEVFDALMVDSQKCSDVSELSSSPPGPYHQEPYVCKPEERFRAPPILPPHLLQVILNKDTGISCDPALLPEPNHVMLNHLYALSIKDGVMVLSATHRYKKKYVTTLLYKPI

[27] = molecular target: 5'-AMP-activated protein kinase subunit gamma-1 (Homo sapiens) (UniProt P54619); assay: Inhibition of AMPKG1 (unknown origin) at 1 uM relative to control
5'-AMP-activated protein kinase subunit gamma-1 (Homo sapiens), sequence (P54619 whole entry): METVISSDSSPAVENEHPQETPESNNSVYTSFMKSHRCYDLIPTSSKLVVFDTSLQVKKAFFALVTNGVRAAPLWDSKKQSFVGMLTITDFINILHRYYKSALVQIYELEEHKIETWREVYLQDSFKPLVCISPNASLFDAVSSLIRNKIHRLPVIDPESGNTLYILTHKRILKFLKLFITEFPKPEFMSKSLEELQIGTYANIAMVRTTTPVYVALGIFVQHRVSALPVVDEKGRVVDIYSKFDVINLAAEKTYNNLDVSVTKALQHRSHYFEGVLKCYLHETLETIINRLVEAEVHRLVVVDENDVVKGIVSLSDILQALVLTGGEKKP

[28] = molecular target: High affinity nerve growth factor receptor (Homo sapiens) (UniProt P04629); assay: Inhibition of TRKA (unknown origin) at 1 uM relative to control
[29] = molecular target: Serine/threonine-protein kinase B-raf (Homo sapiens) (UniProt P15056); assay: Inhibition of BRAF (unknown origin) at 1 uM relative to control
[30] = molecular target: Dual specificity mitogen-activated protein kinase kinase 2 (Homo sapiens) (UniProt P36507); assay: Inhibition of MEK2 (unknown origin) at 1 uM relative to control
[31] = molecular target: Ribosomal protein S6 kinase alpha-1 (Homo sapiens) (UniProt Q15418); assay: Inhibition of RSK1 (unknown origin) at 1 uM relative to control
[32] = molecular target: Tyrosine-protein kinase ABL1 (Homo sapiens) (UniProt P00519); assay: Inhibition of Abl1 (unknown origin) at 1 uM relative to control
[33] = molecular target: Proto-oncogene tyrosine-protein kinase receptor Ret (Homo sapiens) (UniProt P07949); assay: Inhibition of RET (unknown origin) at 1 uM relative to control
[34] = molecular target: Tyrosine-protein kinase Yes (Homo sapiens) (UniProt P07947); assay: Inhibition of YES1 (unknown origin) at 1 uM relative to control
[35] = molecular target: Tyrosine-protein kinase Lck (Homo sapiens) (UniProt P06239); assay: Inhibition of LCK (unknown origin) at 1 uM relative to control
[36] = molecular target: Aurora kinase A (Homo sapiens) (UniProt O14965); assay: Inhibition of aurora A (unknown origin) at 1 uM relative to control

MAP kinase-interacting serine/threonine-protein kinase 2, sequence (Q9HBH9 whole entry): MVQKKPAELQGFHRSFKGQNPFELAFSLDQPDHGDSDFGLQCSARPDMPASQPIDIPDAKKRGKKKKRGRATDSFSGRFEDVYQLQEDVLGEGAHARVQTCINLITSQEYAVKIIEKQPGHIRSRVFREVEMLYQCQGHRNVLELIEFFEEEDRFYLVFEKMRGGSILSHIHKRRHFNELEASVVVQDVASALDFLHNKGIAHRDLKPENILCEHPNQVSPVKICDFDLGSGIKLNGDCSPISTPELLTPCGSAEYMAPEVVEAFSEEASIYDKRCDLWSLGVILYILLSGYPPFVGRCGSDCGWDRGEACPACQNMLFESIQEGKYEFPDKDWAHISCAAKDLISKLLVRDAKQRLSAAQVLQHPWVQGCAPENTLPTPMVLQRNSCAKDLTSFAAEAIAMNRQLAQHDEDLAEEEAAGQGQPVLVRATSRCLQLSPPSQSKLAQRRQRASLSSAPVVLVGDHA

IC50 [1]: 0.36 nM | IC50 [2]: 0.084 nM
Structure (SMILES): Nc1ncnc(Nc2cc(Cl)c3n(c2=O)C2(CCCCC2)NC3=O)c1Cl

IC50 [3]: 5500 nM
Structure (SMILES): c1cc(-c2cc(C3CCNCC3)[nH]n2)ccn1

IC50 [3]: 28 nM | IC50 [1]: 45 nM | IC50 [2]: 28000 nM
Structure (SMILES): CC1NC(=O)c2ccc(Nc3ccncn3)cc21 (stereo not given)

IC50 [3]: 3000 nM
Structure (SMILES): NC(=O)c1ccc(Nc2ccncn2)c(=O)[nH]1

IC50 [3]: 3800 nM
Structure (SMILES): c1ccc(-c2n[nH]c3ccc(-c4ccncc4)cc23)cc1

inhibition [4]: 74% | remaining at 0.5 h, 1 µM [5]: 95% | remaining at 0.5 h, 1 µM [6]: 100% | remaining at 0.5 h, 1 µM [7]: 100% | bioavailability [8]: 79% | bioavailability [9]: 50% | bioavailability [10]: > 100% | bioavailability [11]: 54% | inhibition [12]: 88% | inhibition [13]: 52% | inhibition [14]: 67% | logP (physchem): 1.8 | Papp A→B at 2 h, 5 µM (in vitro): 0.9 ×10⁻⁶ cm/s
Structure (SMILES): CC1(C)NC(=O)c2c(Cl)cc(Nc3cc(N)ncn3)c(=O)n21

IC50 [3]: 1.9 nM | IC50 [1]: 5.7 nM | IC50 [2]: 430 nM
Structure (SMILES): O=C1NCc2cc(Nc3cc(NC(=O)C4CC4)ncn3)ccc21

IC50 [3]: 4700 nM
Structure (SMILES): Cc1n[nH]c(C)c1-c1ccc(C2CCCN2)cc1 (stereo not given)

inhibition [15]: 17% | inhibition [16]: 17% | EC50 (PC-3): 590 nM | EC50 (HCT-116): 210 nM | EC50 (SW-620): 310 nM | inhibition [4]: 17% | inhibition [17]: 17% | inhibition [18]: 17% | inhibition [19]: 17% | inhibition [20]: 17% | inhibition [21]: 17% | inhibition [22]: 17% | inhibition [23]: 17% | inhibition [24]: 17% | inhibition [25]: 17% | inhibition [26]: 17% | inhibition [27]: 17% | inhibition [28]: 17% | inhibition [29]: 17% | inhibition [30]: 17% | inhibition [31]: 17% | IC50 [3]: 1.5 nM | IC50 [1]: 7.8 nM | IC50 [2]: 120 nM
Structure (SMILES): N[C@H]1C[C@H](Oc2ccc3ncc(-c4ccc5cnccc5c4)n3n2)C1

EC50 (PC-3): > 30000 nM | EC50 (HCT-116): > 30000 nM | EC50 (SW-620): > 30000 nM | inhibition [4]: 4% | inhibition [32]: 4% | inhibition [33]: 4% | inhibition [17]: 4%
Structure (SMILES): CC1(C)NC(=O)c2ccc(Nc3cc(NC(=O)C4CC4)ncn3)c(=O)n21

IC50 [3]: 690 nM
Structure (SMILES): NC(=O)c1ccc(Nc2ccncn2)cc1

inhibition [15]: 10% | EC50 (HCT-116): 2700 nM | EC50 (SW-620): 2800 nM | inhibition [4]: 10% | inhibition [32]: 10% | inhibition [33]: 10% | inhibition [17]: 10% | inhibition [34]: 10% | inhibition [18]: 10% | inhibition [19]: 10% | inhibition [35]: 10% | inhibition [36]: 10%
Structure (SMILES): CC1(c2cccc(Cl)c2)NC(=O)c2c(Cl)cc(Nc3cc(NC(=O)C4CC4)ncn3)c(=O)n21 (stereo not given)

IC50 [3]: 1800 nM
Structure (SMILES): c1cnn2c(-c3ccncc3)cnc2c1

IC50 [3]: 100 nM | IC50 [1]: 61 nM | IC50 [2]: 4400 nM
Structure (SMILES): CC1(C)NC(=O)c2ccc(Nc3ccncn3)cc21

remaining at 0.5 h, 1 µM [5]: 99% | remaining at 0.5 h, 1 µM [6]: 100% | remaining at 0.5 h, 1 µM [7]: 97% | bioavailability [8]: 85% | bioavailability [9]: 56% | bioavailability [10]: > 100% | bioavailability [11]: 58% | inhibition [12]: 68% | IC50 [3]: 1.4 nM
Structure (SMILES): Cc1cc(Nc2cc(N)ncn2)c(=O)n2c1C(=O)NC21CCC(F)(F)CC1

IC50 [3]: 6400 nM
Structure (SMILES): NC(=O)c1cccn2c(-c3cccnc3)cnc12

IC50 [3]: 23 nM
Structure (SMILES): O=C1NCc2cc(Nc3ncnc4[nH]cnc34)ccc21

IC50 [3]: 60 nM
Structure (SMILES): NC(=O)c1ccc(Nc2ncnc3[nH]cnc23)cc1
